Data from patent US10407467B2, “Polymyxin derivatives and their use in combination therapy together with different antibiotics” (priority 2013, dated 2019).
Structures can show the parent of a compound that is named as a salt. Bridge positions count the residues as written; N and C are the ends. Square brackets hold non-standard residues; d marks the D form. Peptide text beside a SMILES is read from it. * marks the point of attachment. ξ: configuration not given here. Thr(3ξ) = CC(O)[C@H](N)C(=O)O; Dab = NCC[C@H](N)C(=O)O; Inp = O=C(O)C1CCNCC1; X4 = NC1CCCC1C(=O)*

Assays:
Assay type in all cases: cell-based
Pseudomonas aeruginosa [1] = experiment: MIC, sole activity (no second agent); settings: in the absence of Rifampicin; for MIC P. aeruginosa CCUG 59626: strain CCUG 59626
Method in brief: (§1)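 Compound tested without a second agent in cation-adjusted MHB, up to four strains per species, inoculum at 0.5 McFarland from colonies grown 18-24 h on Mueller-Hinton agar. Run in duplicate, invalid beyond 2-fold disagreement, lower duplicate or modal repeat value given, expressed relative to Polymyxin B.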

Klebsiella pneumoniae [2] = experiment: MIC, sole activity (no second agent); settings: in the absence of Rifampicin; for MIC K. pneumoniae ATCC-BAA2146: strain ATCC-BAA2146; for MIC K. pneumoniae CCUG-59348: strain CCUG-59348
Method in brief: as §1

Acinetobacter baumannii [3] = experiment: MIC, sole activity (no second agent); settings: in the absence of Rifampicin; for MIC A. baumannii ATCC13424: strain ATCC13424
Method in brief: as §1

Pseudomonas aeruginosa [4] = experiment: MIC, compound in combination with a second agent (broth microdilution); settings: 1:1 (wt:wt) combination with Rifampicin
Method in brief: (§2)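 Isolated colonies from an 18-24 hour Mueller-Hinton agar plate are suspended to the 0.5 McFarland standard, then tested against 1:1 w/w mixtures of compound and a second antibacterial such as rifampicin. Reported MICs represent total drug (both components).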

Escherichia coli = experiment: as above; settings: 1:1 (wt:wt) combination with Rifampicin
Method in brief: as §2

Klebsiella pneumoniae [5] = experiment: as above; settings: 1:1 (wt:wt) combination with Rifampicin; for MIC K. pneumoniae ATCC 4352: strain ATCC 4352
Method in brief: as §2

Acinetobacter baumannii [6] = experiment: as above; settings: 1:1 (wt:wt) combination with Rifampicin
Method in brief: as §2

[7] = MIC = total drug concentration, strain ATCC 27853
[8] = MIC = total drug concentration, strain ATCC CRM-9027
[9] = MIC = total drug concentration, strain ATCC-47
[10] = MIC = total drug concentration, strain CCUG 59626
[11] = MIC = total drug concentration, strain ATCC25922
[12] = MIC = total drug concentration, strain NCTC9001
[13] = MIC = total drug concentration, strain ATCC-BAA-2146
[14] = MIC = total drug concentration, strain CCUG-59348
[15] = MIC = total drug concentration, strain NCTC 13438
[16] = MIC = total drug concentration, strain ATCC BAA-747
[17] = MIC = total drug concentration, strain CCUG57249
[18] = MIC = total drug concentration, strain NCTC 13423
[19] = MIC = total drug concentration, strain NCTC 13424
[20] = MIC is total drug concentration

| SMILES | MIC P. aeruginosa CCUG 59626 (Pseudomonas aeruginosa [1]) [micrograms/mL] | MIC K. pneumoniae ATCC-BAA2146 (Klebsiella pneumoniae [2]) [micrograms/mL] | MIC K. pneumoniae CCUG-59348 (Klebsiella pneumoniae [2]) [micrograms/mL] | MIC A. baumannii ATCC13424 (Acinetobacter baumannii [3]) [micrograms/mL] | MIC P. aeruginosa ATCC 27853 (Pseudomonas aeruginosa [4]; [7]) [micrograms/mL] | MIC P. aeruginosa ATCC CRM-9027 (Pseudomonas aeruginosa [4]; [8]) [micrograms/mL] | MIC P. aeruginosa ATCC-47 (Pseudomonas aeruginosa [4]; [9]) [micrograms/mL] | MIC P. aeruginosa CCUG 59626 (Pseudomonas aeruginosa [4]; [10]) [micrograms/mL] | MIC E. coli ATCC25922 (Escherichia coli; [11]) [micrograms/mL] | MIC E. coli NCTC9001 (Escherichia coli; [12]) [micrograms/mL] | MIC K. pneumoniae ATCC 4352 (Klebsiella pneumoniae [5]; MIC = total drug concentration) [micrograms/mL] | MIC K. pneumoniae ATCC-BAA-2146 (Klebsiella pneumoniae [5]; [13]) [micrograms/mL] | MIC K. pneumoniae CCUG-59348 (Klebsiella pneumoniae [5]; [14]) [micrograms/mL] | MIC K. pneumoniae NCTC 13438 (Klebsiella pneumoniae [5]; [15]) [micrograms/mL] | MIC A. baumannii ATCC BAA-747 (Acinetobacter baumannii [6]; [16]) [micrograms/mL] | MIC A. baumannii CCUG57249 (Acinetobacter baumannii [6]; [17]) [micrograms/mL] | MIC A. baumannii NCTC 13423 (Acinetobacter baumannii [6]; [18]) [micrograms/mL] | MIC A. baumannii NCTC 13424 (Acinetobacter baumannii [6]; [19]) [micrograms/mL] | also measured |
| --- | --- | --- | --- | --- | --- | --- | --- | --- | --- | --- | --- | --- | --- | --- | --- | --- | --- | --- | --- |
| CC(C)C[C@@H]1NC(=O)[C@@H](Cc2ccccc2)NC(=O)[C@H](CCN)NC(=O)[C@@H](NC(=O)[C@H](CCN)NC(=O)[C@@H](NC(=O)C2CCCC2N)C(C)O)CCNC(=O)[C@H](C(C)O)NC(=O)[C@H](CCN)NC(=O)[C@H](CCN)NC1=O (stereo partly drawn) [Example 7, (1R,S/2R,S)-2-Aminocyclopentane-carbonyl polymyxin B nonapeptide] (X4-[Thr(3ξ)][Dab][Dab][Dab][dF]L[Dab][Dab][Thr(3ξ)]; lactam 3-C) | 0.125 | >32 | >32 | 2 | 0.125 | 0.25 | 0.25 | 0.125 | ≤0.06 | 0.25 | 0.125 | 0.25 | 4 | 0.5 | ≤0.06 | ≤0.06 | ≤0.06 | 0.125 | MIC P. aeruginosa ATCC 27853 (Pseudomonas aeruginosa [1]; strain ATCC27853): 0.125 micrograms/mL; MIC P. aeruginosa ATCC-47 (Pseudomonas aeruginosa [1]; strain ATCC-47): 1 micrograms/mL; MIC P. aeruginosa ATCCCRM-9027 (Pseudomonas aeruginosa [1]; strain ATCCCRM-9027): 0.125 micrograms/mL; MIC K. pneumoniae ATCC 4352 (Klebsiella pneumoniae [2]; strain ATCC 4352): 0.5 micrograms/mL; MIC A. baumannii ATCCBAA-747 (Acinetobacter baumannii [3]; strain ATCCBAA-747): 1 micrograms/mL; MIC A. baumannii CCUG57249 (Acinetobacter baumannii [3]; strain CCUG 57249): 2 micrograms/mL; MIC A. baumannii NCTC 13423 (Acinetobacter baumannii [3]; strain NCTC13423): 1 micrograms/mL |
| CC(C)C[C@@H]1NC(=O)[C@@H](Cc2ccccc2)NC(=O)[C@H](CCN)NC(=O)[C@@H](NC(=O)[C@H](CCN)NC(=O)[C@@H](NC(=O)C2CCNCC2)C(C)O)CCNC(=O)[C@H](C(C)O)NC(=O)[C@H](CCN)NC(=O)[C@H](CCN)NC1=O (some centres unmarked) [Example 29, 4-piperidinecarbonyl polymyxin B nonapeptide, trifluoroacetate] (H-[Inp][Thr(3ξ)][Dab][Dab][Dab][dF]L[Dab][Dab][Thr(3ξ)]; lactam 4-C) | 0.125 | >32 | >32 | 2 | 0.125 | 0.125 | 0.25 | 0.125 | 0.125 | 0.25 | ≤0.06 | 0.25 | 4 | 0.5 | ≤0.06 | 0.125 | ≤0.06 | 0.125 | MIC P. aeruginosa ATCC 27853 (Pseudomonas aeruginosa [4]; [20]): 0.125 micrograms/mL; MIC P. aeruginosa ATCC CRM-9027 (Pseudomonas aeruginosa [4]; [20]): 0.125 micrograms/mL; MIC P. aeruginosa ATCC-47 (Pseudomonas aeruginosa [4]; [20]): 0.25 micrograms/mL; MIC P. aeruginosa CCUG 59626 (Pseudomonas aeruginosa [4]; [20]): 0.125 micrograms/mL; MIC E. coli ATCC25922 (Escherichia coli; [20]): 0.125 micrograms/mL; MIC E. coli NCTC9001 (Escherichia coli; [20]): 0.25 micrograms/mL; MIC K. pneumoniae ATCC-BAA-2146 (Klebsiella pneumoniae [5]; [20]): 0.25 micrograms/mL; MIC K. pneumoniae CCUG-59348 (Klebsiella pneumoniae [5]; [20]): 4 micrograms/mL; MIC K. pneumoniae NCTC 13438 (Klebsiella pneumoniae [5]; [20]): 0.5 micrograms/mL; MIC A. baumannii ATCC BAA-747 (Acinetobacter baumannii [6]; [20]): ≤0.06 micrograms/mL; MIC A. baumannii CCUG57249 (Acinetobacter baumannii [6]; [20]): 0.125 micrograms/mL; MIC A. baumannii NCTC 13423 (Acinetobacter baumannii [6]; [20]): ≤0.06 micrograms/mL; MIC A. baumannii NCTC 13424 (Acinetobacter baumannii [6]; [20]): 0.125 micrograms/mL |
